Some results are limits rather than exact numbers.

In assay [1] the target is human recombinant A3 adenosine receptor (Homo sapiens (Human), UniProt P0DMS8). The assay is described as follows: Adenosine receptor binding, displacement of specific [3H]NECA binding. The conditions noted are these: [3H]NECA displacement, CHO cells stably transfected with human recombinant A3 adenosine receptor. An excerpt:
(§1) The compounds were studied in binding assays to determine their selectivity and potency to the A1, A2a and A3 adenosine receptors.

Assay [2] has as its target human recombinant A2A adenosine receptor (Homo sapiens (Human), UniProt P29274). The description is as above. The settings on record: [3H]NECA displacement, CHO cells stably transfected with human recombinant A2A adenosine receptor.
Description: as §1

The target in assay [3] is human recombinant A1 adenosine receptor (Homo sapiens (Human), UniProt P30542). The assay is described as follows: Adenosine receptor binding, displacement of specific [3H]CCPA binding. The conditions noted are these: [3H]CCPA displacement, CHO cells stably transfected with human recombinant A1 adenosine receptor.
human recombinant A1 adenosine receptor, sequence (P30542 whole entry): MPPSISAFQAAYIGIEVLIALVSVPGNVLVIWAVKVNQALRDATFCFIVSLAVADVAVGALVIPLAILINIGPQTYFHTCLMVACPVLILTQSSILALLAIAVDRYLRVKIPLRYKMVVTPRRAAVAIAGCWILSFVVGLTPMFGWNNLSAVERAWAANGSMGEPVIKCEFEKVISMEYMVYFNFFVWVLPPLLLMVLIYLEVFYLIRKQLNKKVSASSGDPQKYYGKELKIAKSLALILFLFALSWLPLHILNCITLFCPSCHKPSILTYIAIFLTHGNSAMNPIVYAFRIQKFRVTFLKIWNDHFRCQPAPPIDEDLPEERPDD
Description: as §1

For assay [4], the system named is ocular normotensive Dutch-Belted rabbits. In words: Changes in intraocular pressure after topical administration to the eye. Format: in vivo, rabbit. The conditions noted are these: for changes in IOP relative to baseline after dosing (in words): 0-6 hours. The method, then: The study involved groups of eight rabbits and the rabbits were acclimated for two days before they received a single dose in either the right eye or left eye of the HPCD control. The IOP of the groups of rabbits were recorded at 0, 1, 2, 4 and 6 hours after dosing of the control.

human recombinant A3 adenosine receptor, sequence (P0DMS8 whole entry): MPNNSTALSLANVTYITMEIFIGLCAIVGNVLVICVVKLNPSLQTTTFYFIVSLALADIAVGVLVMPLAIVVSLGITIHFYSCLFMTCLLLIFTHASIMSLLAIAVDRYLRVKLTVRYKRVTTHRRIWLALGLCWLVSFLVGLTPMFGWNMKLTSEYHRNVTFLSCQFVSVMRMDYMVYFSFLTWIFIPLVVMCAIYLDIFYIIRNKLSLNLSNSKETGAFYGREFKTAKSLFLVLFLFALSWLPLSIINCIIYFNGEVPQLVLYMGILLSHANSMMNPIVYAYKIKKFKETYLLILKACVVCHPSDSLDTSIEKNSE
human recombinant A2A adenosine receptor, sequence (P29274 whole entry): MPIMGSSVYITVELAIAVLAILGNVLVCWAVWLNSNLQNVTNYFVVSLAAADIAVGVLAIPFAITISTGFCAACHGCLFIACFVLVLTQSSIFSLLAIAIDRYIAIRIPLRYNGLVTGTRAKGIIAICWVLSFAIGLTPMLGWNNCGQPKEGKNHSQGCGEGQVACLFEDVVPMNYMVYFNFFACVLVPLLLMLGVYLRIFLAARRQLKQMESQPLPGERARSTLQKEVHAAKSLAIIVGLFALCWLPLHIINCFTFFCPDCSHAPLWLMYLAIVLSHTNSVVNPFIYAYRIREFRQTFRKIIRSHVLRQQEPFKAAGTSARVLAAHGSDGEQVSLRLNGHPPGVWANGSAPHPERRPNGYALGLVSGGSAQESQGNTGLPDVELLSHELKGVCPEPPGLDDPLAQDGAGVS

Turning to `Cc1ccccc1CO[C@H]1CCC[C@@H]1Nc1ncnc2c1ncn2[C@@H]1O[C@H](CO)[C@@H](O)[C@H]1O` [Compound 7, (2R,3S,4R,5R)-2-(hydroxymethyl)-5-(6-((1S,2S)-2-(2-methylbenzyloxy)cyclopentylamino)-9H-purin-9-yl)tetrahydrofuran-3,4-diol], the inhibition constant (Ki) came out at 1.57 µM in assay [1], 7.33 µM in assay [2] and 0.0126 µM in assay [3].

Take `OC[C@H]1OC(n2cnc3c(NC4CCCCC4OCc4ccccc4)ncnc32)[C@H](O)[C@@H]1O` (stereo partly shown) [Compound 5]: the Ki in assay [1] was over 100 µM.

For the compound `OC[C@H]1O[C@@H](n2cnc3c(N[C@@H]4CCC[C@H]4OCc4ccc(F)cc4)ncnc32)[C@H](O)[C@@H]1O` [Compound 20, (2R,3R,4S,5R)-2-(6-((1R,2R)-2-(4-fluorobenzyloxy)cyclopentylamino)-9H-purin-9-yl)-5-(hydroxymethyl)tetrahydrofuran-3,4-diol], the inhibition constant Ki was determined as 3.71 µM in assay [1] and 3.78 µM in assay [2].

On to `Cc1cccc(CO[C@@H]2CCC[C@H]2Nc2ncnc3c2ncn3[C@@H]2O[C@H](CO)[C@@H](O)[C@H]2O)c1` [Compound 17, (2R,3S,4R,5R)-2-(hydroxymethyl)-5-(6-((1R,2R)-2-(3-methylbenzyloxy)cyclopentylamino)-9H-purin-9-yl)tetrahydrofuran-3,4-diol], for which the results for the Ki in assay [1], in assay [2] and in assay [3] were 2.62 µM, 3.37 µM and 0.00265 µM, respectively. In addition, the “changes in IOP relative to baseline after dosing (in words)” value in assay [4] (topical single dose 200 mcg) is on record as “do not show significant changes in IOP”.

For `OC[C@H]1O[C@@H](n2cnc3c(N[C@H]4CCC[C@@H]4OCc4cccc(F)c4)ncnc32)[C@H](O)[C@@H]1O` [Compound 8, (2R,3R,4S,5R)-2-(6-((1S,2S)-2-(3-fluorobenzyloxy)cyclopentylamino)-9H-purin-9-yl)-5-(hydroxymethyl)tetrahydrofuran-3,4-diol], the Ki worked out at 1.63 µM in assay [1] and 5.54 µM in assay [2].

Turning to `Cc1ccccc1CO[C@@H]1CCC[C@H]1Nc1ncnc2c1ncn2[C@@H]1O[C@H](CO)[C@@H](O)[C@H]1O` [Compound 18, (2R,3S,4R,5R)-2-(hydroxymethyl)-5-(6-((1R,2R)-2-(2-methylbenzyloxy)cyclopentylamino)-9H-purin-9-yl)tetrahydrofuran-3,4-diol], the inhibition constant Ki was 5.1 µM in assay [1], 0.422 µM in assay [2] and 0.00228 µM in assay [3]. Further, the “return of IOP to baseline levels, time post dosing” value in assay [4] (topical single dose 200 mcg) was 6 h. The “reduction of IOP” value in assay [4] (topical single dose 200 mcg in HPCD formulation, 2 hours post dosing) came out at 20%.

`OC[C@H]1O[C@@H](n2cnc3c(N[C@H]4CCC[C@@H]4OCc4cccc(I)c4)ncnc32)[C@H](O)[C@@H]1O` [Compound 11, (2R,3S,4R,5R)-2-(hydroxymethyl)-5-(6-((1S,2S)-2-(3-iodobenzyloxy)cyclopentylamino)-9H-purin-9-yl)tetrahydrofuran-3,4-diol]: the inhibitory constant (Ki) in assay [1] was 1.29 µM. Moreover, the “changes in IOP relative to baseline after dosing (in words)” value in assay [4] (topical single dose 200 mcg) was “do not show significant changes in IOP”.

For the compound `OC[C@H]1O[C@@H](n2cnc3c(N[C@@H]4CCC[C@H]4OCc4cccc(I)c4)ncnc32)[C@H](O)[C@@H]1O` [Compound 22, (2R,3S,4R,5R)-2-(hydroxymethyl)-5-(6-((1R,2R)-2-(3-iodobenzyloxy)cyclopentylamino)-9H-purin-9-yl)tetrahydrofuran-3,4-diol], the Ki in assay [1] was found to be 0.551 µM.

In the case of `Cc1cccc(CO[C@H]2CCC[C@@H]2Nc2ncnc3c2ncn3[C@@H]2O[C@H](CO)[C@@H](O)[C@H]2O)c1` [Compound 6, (2R,3S,4R,5R)-2-(hydroxymethyl)-5-(6-((1S,2S)-2-(3-methylbenzyloxy)cyclopentylamino)-9H-purin-9-yl)tetrahydrofuran-3,4-diol], the values for the inhibition constant (Ki) in assay [1], in assay [2] and in assay [3] were 1.35 µM, 5.32 µM and 0.00279 µM, respectively.

Regarding `Cc1ccc(CO[C@H]2CCC[C@@H]2Nc2ncnc3c2ncn3[C@@H]2O[C@H](CO)[C@@H](O)[C@H]2O)cc1` [Compound 3, (2R,3S,4R,5R)-2-(hydroxymethyl)-5-(6-((1S,2S)-2-(4-methylbenzyloxy)cyclopentylamino)-9H-purin-9-yl)tetrahydrofuran-3,4-diol], the inhibition constant (Ki) in assay [1] turned out to be 2.55 µM; in assay [2], 25.4 µM; in assay [3], 0.029 µM.

For `OC[C@H]1OC(n2cnc3c(NC4CCC[C@@H]4OCc4ccc(F)cc4)ncnc32)[C@H](O)[C@@H]1O` (stereo partly shown) [Compound 9], the Ki in assay [1] amounted to 1.87 µM; in assay [2] it was 11.4 µM.

For the compound `OC[C@H]1O[C@@H](n2cnc3c(N[C@@H]4CCC[C@H]4OCc4cccc(F)c4)ncnc32)[C@H](O)[C@@H]1O` [Compound 19, (2R,3R,4S,5R)-2-(6-((1R,2R)-2-(3-fluorobenzyloxy)cyclopentylamino)-9H-purin-9-yl)-5-(hydroxymethyl)tetrahydrofuran-3,4-diol], the Ki in assay [1] turned out to be 4.04 µM; in assay [2], 2.55 µM.

Consider `OC[C@H]1OC(n2cnc3c(NC4CCCCC4OCc4ccccc4)ncnc32)[C@H](O)[C@@H]1O` (stereo partly shown) [Compound 4], for which the inhibition constant (Ki) in assay [1] is over 100 µM.

The term Ki denotes the dissociation constant of the complex between target and ligand, obtained from inhibition or displacement.

Values taken from patent publication US8501708B2, “Adenosine compounds and their use thereof” (Inotek Pharmaceuticals Corporation, priority 2011, dated 2013).
